In US9416099B2 (priority 2010, dated 2016):
“And” between values parts separate entries of the source, which are not always exact repeats. Equal values may be shown once.

Experiments:
[1] = system: Pseudomonas aeruginosa; type: cell-based
[2] = system: Staphylococcus aureas; type: cell-based
[3] = system: Pseudomonas aeruginosa and Staphylococcus aureas; type: cell-based
[4] = type: physicochemical

## CN(C)CCCNC(=O)CCCCCCC/C=C/CCCCCCCC(=O)NCCC[N+](C)(C)CC(=O)[O-] [C18-36, C18 DiDMAPA MonoBetaine]
other
  Adjuvant 1 h, mL separation: 0 mL
  Anionic 1 h, mL separation: 0 mL
  Nonionic 1 h, mL separation: 0 mL
  Adjuvant 24 h, mL separation: 0 mL
  Anionic 24 h, mL separation: 0 mL

## C=CCCCCCCCC[N+](C)(C)C [C10-42, C10 Amine DMS Quat]
other
  Adjuvant 1 h, mL separation: 0 mL
  Anionic 1 h, mL separation: 0 mL
  Adjuvant 24 h, mL separation: 0 mL
  Anionic 24 h, mL separation: 0 mL

## CCCCCC/C=C/CCCCCCCC(=O)NCCC[N+](C)(C)CC(=O)[O-] [C16-13, C16 DMAPA Betaine]
other
  Anionic 1 h, mL separation: 0 mL
  Anionic 24 h, mL separation: 0.25 mL

## C[N+](C)(CCCNC(=O)CCCCCCC/C=C/CCCCCCCC(=O)NCCC[N+](C)(C)Cc1ccccc1)Cc1ccccc1.[Cl-].[Cl-] [Mix-65, C18 DiDMAPA Benzyl Quat]
[1]
  % Kill, Pseudomonas aeruginosa, 400 ppm: 26.1%
  % Kill, Pseudomonas aeruginosa, DI water: 30.5%
[2]
  % Kill, Staphylococcus aureas, 400 ppm: 22.1%
  % Kill, Staphylococcus aureas, DI water: 55.3%
[3]
  Overall Rating: good

## CN(C)CCCNC(=O)CCCCCCC/C=C/CCCCCCCC(=O)NCCC[N+](C)(C)CC(=O)[O-] [Mix-36, C18 DiDMAPA MonoBetaine]
other
  Anionic 1 h, mL separation: 0 mL
  Nonionic 1 h, mL separation: 0 mL
  Anionic 24 h, mL separation: 0 mL
  Nonionic 24 h, mL separation: 0 mL

## CC/C=C/CCCCCCCC(=O)NCCC[N+](C)(C)CC(O)CS(=O)(=O)[O-] (centres unmarked) [C12-24, C12 DMAPA Sulfobetaine]
other
  Adjuvant 1 h, mL separation: 0 mL
  Anionic 1 h, mL separation: 0 mL
  Nonionic 1 h, mL separation: 0.25 mL
  Adjuvant 24 h, mL separation: 0 mL
  Anionic 24 h, mL separation: 0 mL
  Nonionic 24 h, mL separation: 1 mL

## C[N+](C)(C)CCCNC(=O)CCCCCCC/C=C/CCCCCCCC(=O)NCCC[N+](C)(C)[O-] [Mix-35, C18 DiDMAPA Quat AO]
[1]
  % Kill, Pseudomonas aeruginosa, 400 ppm: 22.1%
  % Kill, Pseudomonas aeruginosa, DI water: 31.4%
[2]
  % Kill, Staphylococcus aureas, 400 ppm: 20.9%
  % Kill, Staphylococcus aureas, DI water: 55.6%
[3]
  Overall Rating: good
other
  Adjuvant 1 h, mL separation: 0 mL
  Anionic 1 h, mL separation: 0 mL
  Nonionic 1 h, mL separation: 5 mL
  Adjuvant 24 h, mL separation: 0 mL
  Anionic 24 h, mL separation: 0 mL
  Nonionic 24 h, mL separation: 1 mL

## C[N+](C)(CCCNC(=O)CCCCCCC/C=C/CCCCCCCC(=O)NCCC[N+](C)(C)Cc1ccccc1)Cc1ccccc1.[Cl-].[Cl-] [C18-65, C18 DiDMAPA Benzyl Quat]
[1]
  % Kill, Pseudomonas aeruginosa, 400 ppm: 24.7%
  % Kill, Pseudomonas aeruginosa, DI water: 30.4%
[2]
  % Kill, Staphylococcus aureas, 400 ppm: 20.6%
  % Kill, Staphylococcus aureas, DI water: 55.6%
[3]
  Overall Rating: good

## C[N+](C)(C)CCCNC(=O)CCCCCCC/C=C/CCCCCCCC(=O)NCCC[N+](C)(C)C [Mix-27, C18 DiDMAPA DiQuat]
[1]
  % Kill, Pseudomonas aeruginosa, 400 ppm: 23.2%
  % Kill, Pseudomonas aeruginosa, DI water: 52.4%
[2]
  % Kill, Staphylococcus aureas, 400 ppm: 23.2%
  % Kill, Staphylococcus aureas, DI water: 56.1%
[3]
  Overall Rating: good
other
  Adjuvant 1 h, mL separation: 0 mL
  Anionic 1 h, mL separation: 0 mL
  Nonionic 1 h, mL separation: 0 mL
  Adjuvant 24 h, mL separation: 0 mL
  Anionic 24 h, mL separation: 0 mL
  Nonionic 24 h, mL separation: 0 mL

## CC/C=C/CCCCCCCC(=O)NCCC[N+](C)(C)CC(=O)[O-] [C12-22, C12 DMAPA Betaine]
other
  Adjuvant 1 h, mL separation: 0 mL
  Anionic 1 h, mL separation: 0 mL
  Nonionic 1 h, mL separation: 0 mL
  Adjuvant 24 h, mL separation: 0 mL
  Anionic 24 h, mL separation: 0 mL

## C[N+](C)(C)CCCNC(=O)CCCCCCCCC(CCCCCCCC(=O)NCCC[N+](C)(C)C)S(=O)(=O)O.[Na+] (centres unmarked) [C18-28, C18 DiDMAPA DiQuat Sulfonate]
[4]
  % Separation 1 h: 4% and 3.4%
  % Separation 24 h: 4.5% and 3.9%
other
  Adjuvant 1 h, mL separation: 0 mL
  Anionic 1 h, mL separation: 0 mL
  Adjuvant 24 h, mL separation: 0 mL
  Anionic 24 h, mL separation: 0 mL

## C[N+](C)(CCCNC(=O)CCCCCCC/C=C/CCCCCCCC(=O)NCCC[N+](C)(C)CC(O)CS(=O)(=O)[O-])CC(O)CS(=O)(=O)[O-] (centres unmarked) [Mix-31, C18 DiSulfobetaine]
other
  Adjuvant 1 h, mL separation: 0 mL
  Anionic 1 h, mL separation: 0 mL
  Nonionic 1 h, mL separation: 0 mL
  Adjuvant 24 h, mL separation: 0 mL
  Anionic 24 h, mL separation: 0 mL

## C=CCCCCCCCC(=O)NCCC[N+](C)(C)CC(=O)[O-] [C10-22, C10 DMAPA Betaine]
other
  Adjuvant 1 h, mL separation: 0 mL
  Anionic 1 h, mL separation: 0 mL
  Adjuvant 24 h, mL separation: 0 mL
  Anionic 24 h, mL separation: 0 mL
  Nonionic 24 h, mL separation: 0.5 mL

## C=CCCCCCCCC(=O)NCCC[N+](C)(C)Cc1ccccc1.[Cl-] [C10-31, C10 DMAPA Benzyl Quat]
[1]
  % Kill, Pseudomonas aeruginosa, 400 ppm: 47.4%
  % Kill, Pseudomonas aeruginosa, DI water: 47.5%
[2]
  % Kill, Staphylococcus aureas, 400 ppm: 65.5%
  % Kill, Staphylococcus aureas, DI water: 79.7%
[3]
  Overall Rating: superior

## C=CCCCCCCCC(=O)NCCC[N+](C)(C)CC(O)CS(=O)(=O)[O-] (centres unmarked) [C10-24, C10 DMAPA Sulfobetaine]
other
  Adjuvant 1 h, mL separation: 0 mL
  Anionic 1 h, mL separation: 0 mL
  Nonionic 1 h, mL separation: 0.5 mL
  Adjuvant 24 h, mL separation: 0 mL
  Anionic 24 h, mL separation: 0 mL
  Nonionic 24 h, mL separation: 0.5 mL

## CC/C=C/CCCCCCCC(=O)NCCC[N+](C)(C)C [C12-18]
[1]
  % Kill, Pseudomonas aeruginosa, 400 ppm: 40.5%
  % Kill, Pseudomonas aeruginosa, DI water: 58.7%
[2]
  % Kill, Staphylococcus aureas, 400 ppm: 66.3%
  % Kill, Staphylococcus aureas, DI water: 42.4%
[3]
  Overall Rating: good

## CN(C)CCCNC(=O)CCCCCCC/C=C/CCCCCCCC(=O)NCCC[N+](C)(C)C [Mix-34, C18 DiDMAPA MonoQuat]
[1]
  % Kill, Pseudomonas aeruginosa, 400 ppm: 24.1%
  % Kill, Pseudomonas aeruginosa, DI water: 47.5%
[2]
  % Kill, Staphylococcus aureas, 400 ppm: 28.6%
  % Kill, Staphylococcus aureas, DI water: 57.5%
[3]
  Overall Rating: good

## C[N+](C)(C)CCCNC(=O)CCCCCCC/C=C/CCCCCCCC(=O)NCCC[N+](C)(C)C [C18-27, C18 DiDMAPA DiQuat]
[1]
  % Kill, Pseudomonas aeruginosa, 400 ppm: 19.8%
  % Kill, Pseudomonas aeruginosa, DI water: 38.9%
[2]
  % Kill, Staphylococcus aureas, 400 ppm: 17.7%
  % Kill, Staphylococcus aureas, DI water: 55.4%
[3]
  Overall Rating: good

## C[N+](C)(C)CCCNC(=O)CCCCCCC/C=C/CCCCCCCC(=O)NCCC[N+](C)(C)CC(=O)O [C18-38, C18 DiDMAPA Betaine Quat]
[1]
  % Kill, Pseudomonas aeruginosa, 400 ppm: 18.8%
  % Kill, Pseudomonas aeruginosa, DI water: 42.2%
[2]
  % Kill, Staphylococcus aureas, 400 ppm: 30.3%
  % Kill, Staphylococcus aureas, DI water: 57.4%
[3]
  Overall Rating: good

## calcium alkylbenzenesulfonate [Control 1, reference compound]
[4]
  % Separation 1 h: <0.2%
  % Separation 24 h: 1.3%

## C[N+](C)(C)CCCNC(=O)CCCCCCC/C=C/CCCCCCCC(=O)NCCC[N+](C)(C)CC(=O)O [Mix-38, C18 DiDMAPA Betaine Quat]
other
  Adjuvant 1 h, mL separation: 0.5 mL
  Nonionic 1 h, mL separation: 0 mL
  Adjuvant 24 h, mL separation: 0.5 mL
  Nonionic 24 h, mL separation: 0 mL

## C=CCCCCCCCC(=O)NCCC[N+](C)(C)C [C10-18, C10 DMAPA Quat]
[1]
  % Kill, Pseudomonas aeruginosa, 400 ppm: 28.9%
  % Kill, Pseudomonas aeruginosa, DI water: 29.6%
[2]
  % Kill, Staphylococcus aureas, 400 ppm: 71.8%
  % Kill, Staphylococcus aureas, DI water: 75.9%
[3]
  Overall Rating: good

## C[N+](C)([O-])CCCNC(=O)CCCCCCC/C=C/CCCCCCCC(=O)NCCC[N+](C)(C)CC(=O)[O-] [C18-37, C18 DiDMAPA Betaine AO]
other
  Adjuvant 1 h, mL separation: 0 mL
  Anionic 1 h, mL separation: 0 mL
  Nonionic 1 h, mL separation: 0 mL
  Adjuvant 24 h, mL separation: 0 mL
  Anionic 24 h, mL separation: 0 mL

## C[N+](C)([O-])CCCNC(=O)CCCCCCC/C=C/CCCCCCCC(=O)NCCC[N+](C)(C)CC(=O)[O-] [Mix-37, C18 DiDMAPA Betaine AO]
other
  Anionic 1 h, mL separation: 0 mL
  Nonionic 1 h, mL separation: 0 mL
  Adjuvant 24 h, mL separation: 0.5 mL
  Nonionic 24 h, mL separation: 0 mL

## CCCCCC/C=C/CCCCCCCC[N+](C)(C)Cc1ccccc1 [C16-17, C16 Amine Benzyl Quat]
[1]
  % Kill, Pseudomonas aeruginosa, 400 ppm: 39.4%
  % Kill, Pseudomonas aeruginosa, DI water: 42.6%
[2]
  % Kill, Staphylococcus aureas, 400 ppm: 42.5%
  % Kill, Staphylococcus aureas, DI water: 48.1%
[3]
  Overall Rating: superior

## COC(=O)CCCCCCC/C=C/CCCCCCCC(=O)NCCC[N+](C)(C)CC(=O)[O-] [Mix-48, C18 Ester DMAPA Betaine]
other
  Adjuvant 1 h, mL separation: 0 mL
  Anionic 1 h, mL separation: 0 mL
  Nonionic 1 h, mL separation: 0 mL
  Adjuvant 24 h, mL separation: 0 mL
  Anionic 24 h, mL separation: 0 mL
  Nonionic 24 h, mL separation: 0.5 mL

## CC/C=C/CCCCCCCC[N+](C)(C)Cc1ccccc1 [C12-27, C12 Amine Benzyl Quat]
[1]
  % Kill, Pseudomonas aeruginosa, 400 ppm: 59.5%
  % Kill, Pseudomonas aeruginosa, DI water: 51.2%
[2]
  % Kill, Staphylococcus aureas, 400 ppm: 63.5%
  % Kill, Staphylococcus aureas, DI water: 46.0%
[3]
  Overall Rating: good
other
  Adjuvant 1 h, mL separation: 0 mL
  Anionic 1 h, mL separation: 0 mL
  Adjuvant 24 h, mL separation: 0 mL
  Anionic 24 h, mL separation: 0 mL

## C[N+](C)(C)CCCNC(=O)CCCCCCC/C=C/CCCCCCCC(=O)NCCC[N+](C)(C)[O-] [C18-35, C18 DiDMAPA Quat AO]
[1]
  % Kill, Pseudomonas aeruginosa, 400 ppm: 34.4%
  % Kill, Pseudomonas aeruginosa, DI water: 29.3%
[2]
  % Kill, Staphylococcus aureas, 400 ppm: 35.7%
  % Kill, Staphylococcus aureas, DI water: 55.1%
[3]
  Overall Rating: good

## C[N+](C)(CCCNC(=O)CCCCCCCC=CCCCCCCCC(=O)NCCC[N+](C)(C)CC(=O)[O-])CC(=O)[O-] (mixture of isomers) [Mix-32, C18 DiBetaine]
other
  Adjuvant 1 h, mL separation: 0 mL
  Anionic 1 h, mL separation: 0 mL
  Nonionic 1 h, mL separation: 0 mL
  Adjuvant 24 h, mL separation: 0 mL
  Anionic 24 h, mL separation: 0 mL
